Measured values from patent publication US20100092526A1, “NANOEMULSION THERAPEUTIC COMPOSITIONS AND METHODS OF USING THE SAME” (NanoBio Corporation, priority 2008, published 2010).
Converted amounts (≈) assume the structure as drawn. Read-outs that look alike come from different tables or passages of the source.

Tests used:
Acinetobacter baumannii [1] = experiment: MIC/MBC of nanoemulsions against gram-negative isolates (CLSI, alamar blue); assay type: cell-based; conditions: Acinetobacter baumannii (n = 5)
Klebsiella pneumoniae = experiment: as above; assay type: cell-based; conditions: Klebsiella pneumoniae (n = 5)
Proteus mirabilis = experiment: as above; assay type: cell-based; conditions: Proteus mirabilis (n = 5)
[2] = tested on: Stenotrophomonas maltophilia; experiment: MIC/MBC against CF isolates (CLSI, alamar blue); conditions: Stenotrophomonas maltophilia
Burkholderia cenocepacia = experiment: MIC/MBC against CF isolates (CLSI, alamar blue); conditions: Burkholderia cenocepacia
Burkholderia cepacia = experiment: MIC/MBC of nanoemulsions against gram-negative isolates (CLSI, alamar blue); assay type: cell-based; conditions: Burkholderia cepacia (n = 5)
[3] = tested on: Stenotrophomonas maltophilia; experiment: as above; assay type: cell-based; conditions: Stenotrophomonas maltophilia (n = 5)
Pseudomonas aeruginosa [4] = experiment: MIC/MBC against CF isolates (CLSI, alamar blue); conditions: Pseudomonas aeruginosa
Escherichia coli = experiment: MIC/MBC of nanoemulsions against gram-negative isolates (CLSI, alamar blue); assay type: cell-based; conditions: Escherichia coli (n = 5)
Pseudomonas aeruginosa [5] = experiment: as above; assay type: cell-based; conditions: Pseudomonas aeruginosa (n = 5)
Acinetobacter baumannii [6] = experiment: MIC/MBC against clinical isolates (CLSI, alamar blue); conditions: Acinetobacter baumannii
[7] = nanoemulsions in the presence of 5 mM EDTA
[8] = nanoemulsions in the presence of 5 mM EDTA, in µg/mL
[9] = CF Stenotrophomonas isolate NB41
[10] = CF Stenotrophomonas isolate NB42
[11] = CF Stenotrophomonas isolate NB43
[12] = CF Stenotrophomonas isolate NB44
[13] = CF Stenotrophomonas isolate NB45
[14] = CF Stenotrophomonas isolate Steno 1
[15] = CF Stenotrophomonas isolate Steno 2
[16] = CF Stenotrophomonas isolate Steno 3
[17] = CF Stenotrophomonas isolate Steno 4
[18] = CF Stenotrophomonas isolate Steno 6
[19] = CF Stenotrophomonas isolate Steno 8

Which results are given for CC(C)(O/N=C(\C(=O)N[C@@H]1C(=O)N2C(C(=O)[O-])=C(C[n+]3ccccc3)CS[C@H]12)c1csc(N)n1)C(=O)O [Ceftazidime]?
% resistant (Acinetobacter baumannii [1]): 20.0%; % susceptible (Acinetobacter baumannii [1]): 80.0%; MIC50 (Acinetobacter baumannii [1]; [7]): 4 µg/mL; % resistant (Klebsiella pneumoniae): 20.0%; % susceptible (Klebsiella pneumoniae): 80.0%; MIC50 (Klebsiella pneumoniae; [7]): ≤ 1 µg/mL; % resistant (Proteus mirabilis): 0.0%; % susceptible (Proteus mirabilis): 100.0%; MIC50 (Proteus mirabilis; [7]): ≤ 1 µg/mL; MIC Range (Proteus mirabilis; [8]): <=1; MIC50 [2]: > 32 µg/mL; MIC90 [2]: > 32 µg/mL; MBC [2, 9]: > 32 µg/mL; MIC [2, 9]: > 32 µg/mL; MBC [2, 10]: > 32 µg/mL; MIC [2, 10]: 8 µg/mL (≈ 14.6 µM); MBC [2, 11]: > 32 µg/mL; MIC [2, 11]: > 32 µg/mL; MBC [2, 12]: > 32 µg/mL; MIC [2, 12]: > 32 µg/mL; MBC [2, 13]: > 32 µg/mL; MIC [2, 13]: > 32 µg/mL; MBC [2, 14]: > 32 µg/mL; MIC [2, 14]: > 32 µg/mL; MBC [2, 15]: > 32 µg/mL; MIC [2, 15]: > 32 µg/mL; MBC [2, 16]: > 32 µg/mL; MIC [2, 16]: > 32 µg/mL; MBC [2, 17]: 16 µg/mL (≈ 29.3 µM); MIC [2, 17]: 2 µg/mL (≈ 3.66 µM); MBC [2, 18]: > 32 µg/mL; MIC [2, 18]: 32 µg/mL (≈ 58.5 µM); MBC [2, 19]: > 32 µg/mL; MIC [2, 19]: 16 µg/mL (≈ 29.3 µM); MBC ([2]; read-out: MBC 50, 11 CF Stenotrophomonas isolates): > 32 µg/mL; MBC (Burkholderia cenocepacia; CF Burkholderia isolate NB21): > 32 µg/mL; MIC (Burkholderia cenocepacia; CF Burkholderia isolate NB21): 8 µg/mL (≈ 14.6 µM); MBC (Burkholderia cenocepacia; CF Burkholderia isolate NB22): > 32 µg/mL; MIC (Burkholderia cenocepacia; CF Burkholderia isolate NB22): 8 µg/mL (≈ 14.6 µM); MBC (Burkholderia cenocepacia; CF Burkholderia isolate NB23): > 32 µg/mL; MIC (Burkholderia cenocepacia; CF Burkholderia isolate NB23): > 32 µg/mL; MBC (Burkholderia cenocepacia; CF Burkholderia isolate NB24): 32 µg/mL (≈ 58.5 µM); MIC (Burkholderia cenocepacia; CF Burkholderia isolate NB24): 4 µg/mL (≈ 7.32 µM); MBC (Burkholderia cenocepacia; CF Burkholderia isolate NB25): 32 µg/mL (≈ 58.5 µM); MIC (Burkholderia cenocepacia; CF Burkholderia isolate NB25): 16 µg/mL (≈ 29.3 µM); MBC (Burkholderia cenocepacia; CF Burkholderia isolate NB26): 32 µg/mL (≈ 58.5 µM); MIC (Burkholderia cenocepacia; CF Burkholderia isolate NB26): 16 µg/mL (≈ 29.3 µM); MBC (Burkholderia cenocepacia; CF Burkholderia isolate NB27): 16 µg/mL (≈ 29.3 µM); MIC (Burkholderia cenocepacia; CF Burkholderia isolate NB27): 8 µg/mL (≈ 14.6 µM); MBC (Burkholderia cenocepacia; CF Burkholderia isolate NB28b): 16 µg/mL (≈ 29.3 µM); MIC (Burkholderia cenocepacia; CF Burkholderia isolate NB28b): 16 µg/mL (≈ 29.3 µM); MBC (Burkholderia cenocepacia; CF Burkholderia isolate NB29): > 32 µg/mL; MIC (Burkholderia cenocepacia; CF Burkholderia isolate NB29): 4 µg/mL (≈ 7.32 µM); MBC (Burkholderia cenocepacia; CF Burkholderia isolate NB30): 2 µg/mL (≈ 3.66 µM); MIC (Burkholderia cenocepacia; CF Burkholderia isolate NB30): 2 µg/mL (≈ 3.66 µM); % resistant (Burkholderia cepacia): 0.0%; % susceptible (Burkholderia cepacia): 100.0%; MIC50 (Burkholderia cepacia; [7]): 2 µg/mL; MIC Range (Burkholderia cepacia; [8]): 2-4; % resistant [3]: 40.0/40.0%; % susceptible [3]: 40.0/40.0%; MIC50 [3, 7]: 16 µg/mL; MBC (Pseudomonas aeruginosa [4]; CF Pseudomonas isolate NB12): 512 µg/mL (≈ 937 µM); MIC (Pseudomonas aeruginosa [4]; CF Pseudomonas isolate NB12): 256 µg/mL (≈ 468 µM); MBC (Pseudomonas aeruginosa [4]; CF Pseudomonas isolate NB13): 512 µg/mL (≈ 937 µM); MIC (Pseudomonas aeruginosa [4]; CF Pseudomonas isolate NB13): 512 µg/mL (≈ 937 µM); MBC (Pseudomonas aeruginosa [4]; CF Pseudomonas isolate NB14): > 1020 µg/mL; MIC (Pseudomonas aeruginosa [4]; CF Pseudomonas isolate NB14): 1020 µg/mL (≈ 1870 µM); MBC (Pseudomonas aeruginosa [4]; CF Pseudomonas isolate NB15): 512 µg/mL (≈ 937 µM); MIC (Pseudomonas aeruginosa [4]; CF Pseudomonas isolate NB15): 256 µg/mL (≈ 468 µM); MBC (Pseudomonas aeruginosa [4]; CF Pseudomonas isolate NB16): > 1020 µg/mL; MIC (Pseudomonas aeruginosa [4]; CF Pseudomonas isolate NB16): 256 µg/mL (≈ 468 µM); MBC (Pseudomonas aeruginosa [4]; CF Pseudomonas isolate NB19): 1020 µg/mL (≈ 1870 µM); MIC (Pseudomonas aeruginosa [4]; CF Pseudomonas isolate NB19): 512 µg/mL (≈ 937 µM); MBC (Pseudomonas aeruginosa [4]; CF Pseudomonas isolate NB20): 512 µg/mL (≈ 937 µM); MIC (Pseudomonas aeruginosa [4]; CF Pseudomonas isolate NB20): 256 µg/mL (≈ 468 µM); % resistant (Escherichia coli): 20.0%; % susceptible (Escherichia coli): 80.0%; MIC50 (Escherichia coli; [7]): ≤ 1 µg/mL; % resistant (Pseudomonas aeruginosa [5]): 0.0%; % susceptible (Pseudomonas aeruginosa [5]): 100.0%; MIC50 (Pseudomonas aeruginosa [5]; [7]): 2 µg/mL; MIC Range (Pseudomonas aeruginosa [5]; [8]): 2-4; MIC50 (Acinetobacter baumannii [6]): > 32 µg/mL; MIC90 (Acinetobacter baumannii [6]): > 32 µg/mL; MBC (Acinetobacter baumannii [6]; Acinetobacter isolate NB31): > 32 µg/mL; MIC (Acinetobacter baumannii [6]; Acinetobacter isolate NB31): > 32 µg/mL; MBC (Acinetobacter baumannii [6]; Acinetobacter isolate NB32): > 32 µg/mL; MIC (Acinetobacter baumannii [6]; Acinetobacter isolate NB32): > 32 µg/mL; MBC (Acinetobacter baumannii [6]; Acinetobacter isolate NB33): > 32 µg/mL; MIC (Acinetobacter baumannii [6]; Acinetobacter isolate NB33): > 32 µg/mL; MBC (Acinetobacter baumannii [6]; Acinetobacter isolate NB34): 32 µg/mL (≈ 58.5 µM); MIC (Acinetobacter baumannii [6]; Acinetobacter isolate NB34): 32 µg/mL (≈ 58.5 µM); MBC (Acinetobacter baumannii [6]; Acinetobacter isolate NB35): > 32 µg/mL; MIC (Acinetobacter baumannii [6]; Acinetobacter isolate NB35): > 32 µg/mL; MBC (Acinetobacter baumannii [6]; Acinetobacter isolate NB36): 4 µg/mL (≈ 7.32 µM); MIC (Acinetobacter baumannii [6]; Acinetobacter isolate NB36): 2 µg/mL (≈ 3.66 µM); MBC (Acinetobacter baumannii [6]; Acinetobacter isolate NB37): 32 µg/mL (≈ 58.5 µM); MIC (Acinetobacter baumannii [6]; Acinetobacter isolate NB37): 32 µg/mL (≈ 58.5 µM); MBC (Acinetobacter baumannii [6]; Acinetobacter isolate NB38): > 32 µg/mL; MIC (Acinetobacter baumannii [6]; Acinetobacter isolate NB38): > 32 µg/mL; MBC (Acinetobacter baumannii [6]; Acinetobacter isolate NB39): > 32 µg/mL; MIC (Acinetobacter baumannii [6]; Acinetobacter isolate NB39): 32 µg/mL (≈ 58.5 µM); MBC (Acinetobacter baumannii [6]; Acinetobacter isolate NB40): > 32 µg/mL; MIC (Acinetobacter baumannii [6]; Acinetobacter isolate NB40): > 32 µg/mL; MBC (Acinetobacter baumannii [6]; read-out: MBC 50, 10 Acinetobacter isolates): > 32 µg/mL
